Source: paper PMC7399337, “Biological Properties and Absolute Configuration of Flavanones From Calceolaria thyrsiflora Graham” (Frontiers in Pharmacology, 2020)
Converted amounts (≈) assume the structure as drawn.

How the values were obtained:
A. tumefaciens = assay: Antibacterial MIC, broth microdilution, phytopathogens; assay type: cell-based; conditions: Agrobacterium tumefaciens; GN A. tumefaciens; 24 h; tested 12.5 to 1,600 µg/ml; read-out: Minimum inhibitory concentration (MIC)
Protocol: (§1) The minimum inhibitory concentrations (MIC) were determined using the broth microdilution method ([Díaz et al., 2018]). Two-fold serial dilutions were added to the wells of sterile 96-well plates containing inoculated BBL™ Mueller Hinton II Broth medium suspensions of bacterial cells (1.0 x10^5 UFC/ml) of Agrobacterium tumefaciens and Bacillus subtilis. The final concentrations ranged from 12.5 to 1,600 µg/ml. Ethanol (1%) was used as the negative control and chloramphenicol (CALBIOCHEM; U.S. and Canada) was used as the positive control against both bacteria. MICs were determined according to the OD600 obtained in a Thermo Scientific Multiskan GO 96-well plate photometer. […] Assays were done in triplicate.

B. subtilis = assay: as above; assay type: cell-based; conditions: Bacillus subtilis; GP B. subtilis; 24 h; tested 12.5 to 1,600 µg/ml; read-out: Minimum inhibitory concentration (MIC)
Protocol: as §1

- MIC (A. tumefaciens): 12.5 µg/mL (≈ 38.7 µM)
- MIC (B. subtilis): 12.5 µg/mL (≈ 38.7 µM)
Structure (SMILES): O=C(N[C@H](CO)[C@H](O)c1ccc([N+](=O)[O-])cc1)C(Cl)Cl [Chloramphenicol]
